Assay results published in a melting point compilation (Tetko et al.; mined from patent text by program, amines drawn as free bases though some values may be those of a salt).

| melting point | SMILES |
| --- | --- |
| 92 °C | COc1ccc2c(c1)CN(C(=O)CCCCCN1CCN(c3cccc(C(F)(F)F)c3)CC1)C2 |
| 217 to 220 °C | CCc1nc(=O)[nH]c2sccc12 |
| 128 °C | CCc1nc2c(C)cc(C)nc2n1-c1ccc(CC(C)NC(=O)NS(=O)(=O)c2ccc(C)cc2)cc1 (stereo unspecified) |
| 82 to 84 °C | CN(C)c1c(S(=O)C(F)(F)F)c(-c2ncon2)nn1-c1c(Cl)cc(C(F)(F)F)cc1Cl (stereo unspecified) |
| 132 to 134 °C | CCN(CC)CC1CCCCN1CC#CCN1c2ccccc2C(=O)Nc2cccnc21 (stereo unspecified) |
| 196 to 197 °C | COc1ccc(-n2c(C)ccc2-c2ccc(S(N)(=O)=O)cc2)cc1 |
| 102 to 104 °C | CN(C)c1cc(Br)cc(Sc2ccc([N+](=O)[O-])cc2)c1 |
| 90 °C | COC(=O)c1cc(-n2cnc(Br)c2)c(C(F)(F)F)cc1[N+](=O)[O-] |
| 69 to 72 °C | COCCCNc1cc(C)ccc1N |
| 139 to 149 °C | O=C(O)COc1c(-c2cc(Cl)cc(Cl)c2)cc(C(=O)NCCCCCCCCc2ccccc2)cc1-c1cc(Cl)cc(Cl)c1 |
| 138 to 139 °C | CNC(=O)C1=CC(CF)(CF)Oc2ccccc21 |
| 87 to 88 °C | CC(C)(C)OC(=O)N1C[C@@H](Br)C[C@@H]1C(=O)OCc1ccccc1 |
| 222 to 223 °C | CC(=O)Nc1nc(CCc2ccc(NC(=NC(=O)OC(C)(C)C)NC(=O)OC(C)(C)C)cc2)c(C(=O)O)s1 |
| 102 to 103 °C | O=[N+]([O-])c1ccc(OS(=O)(=O)C(F)(F)F)c2oc3ccccc3c12 |
| 179 °C | CCc1cccc(C)c1CNc1cc(CNC)cn2nc(C)nc12 |
| 79 to 80 °C | c1ccc(CSc2nc[nH]n2)cc1 |
| 101 °C | CN1CCC(C(=O)N(C)C)C(c2cccc(F)c2)C1 (stereo unspecified) |
| 186 to 188 °C | CC1NC(=O)NN=C1c1ccc(OCC(=O)NCCN2CCN(C(=O)c3ccc(Cl)cc3)CC2)c(Cl)c1 (stereo unspecified) |
| 241 to 245 °C | CC(C)(O)c1ccc2c(c1)SC(c1ccccc1)C(c1ccc3c(c1)NC(=O)CO3)=C2 (stereo unspecified) |

| melting point | SMILES |
| --- | --- |
| 147 to 148 °C | CCOC(=O)c1c(C)nc(-c2ccccc2)nc1-c1ccc(OC(C)=O)c([N+](=O)[O-])c1 |
| 105 to 107 °C | c1ccc(-c2nc3ccccc3o2)nc1 |
| 190 to 192 °C | COc1ccc(OC)c(Cc2ccc3nc(N)nc(N)c3c2)c1 |
| 213 to 215 °C | CS(=O)(=O)Nc1ccc2c(c1)C(=O)CC1(CCN(CCc3ccc(Cl)nc3)CC1)O2 |
| > 400 °C | CC(C)OP(=O)(OC(C)C)c1nc(N)nc(N)n1 |
| 170 to 171 °C | NC(=S)NC(=O)c1ccccc1 |
| 91 to 93 °C | CCSc1sc(C(=O)N2CCCC2)c2c1-c1oncc1C(C)(C)C2 |
| 265 °C | O=C(Nc1cc(C(=O)NCCc2ccccc2)ccc1O)C(=O)Nc1cc(Cl)cc(Cl)c1O |
| 93 to 95 °C | COC(=O)c1ccc(OCCCCCOc2ccc(C(=O)OC)cc2)cc1 |
| 190 to 193 °C | CC(=O)Nc1c(C(=O)C(C)(C)C)[nH]c2cc(Cl)ccc12 |
| 105 °C | CCCCCC(O)CCCN(Cc1cccc(C=CC(=O)O)c1)S(C)(=O)=O (stereo unspecified) |
| 120 to 132 °C | CCCNC(=O)C(C)Cc1ccc2c(c1)c(Cc1ccc(C(=O)NS(=O)(=O)c3ccccc3C)cc1OC)cn2CCC(=O)N(C)C (stereo unspecified) |
| > 330 °C | CNC(=O)c1nc(-c2cccnc2)nc2c1[nH]c(=O)n2-c1ccccc1 |
| 84 to 86 °C | O=C(O)C(Oc1ccccc1)C(=O)NCC1CCN(c2ccncc2)CC1 (stereo unspecified) |
| 192 to 194 °C | CC(C(N)=O)n1nc(-c2cc(C(C)(C)C)c(O)c(C(C)(C)C)c2)c2cccnc21 (stereo unspecified) |
| 100 to 101 °C | COCc1ccc(Oc2cc(OC(C)C)c3[nH]c(C4=NCC(CC(=O)NC5CC5)S4)cc3c2)cn1 (stereo unspecified) |
| 84 °C | CC(=NN(c1ccccc1)c1ccccc1)c1ccccn1 |
| 60 to 61 °C | COC(=O)CCCCCc1nn(-c2ccc([N+](=O)[O-])cc2)c2c1CCCC2 |
| 120 °C | CCOC(=O)C1=C2CCCN2C(C)=C(C(=O)OC)C1c1cccc([N+](=O)[O-])c1 (stereo unspecified) |

More lines, now with the values behind:

| SMILES | melting point |
| --- | --- |
| O=C(O)CCCc1cnoc1-c1ccccc1 | 67 to 68 °C |
| CC(O)Cn1nc2c3c(cc([N+](=O)[O-])cc31)CCC2 (stereo unspecified) | 147 to 148 °C |
| Cn1c(CNCC(C)(C)O)cc2cc(NC(=O)c3ccc(OC[C@@H]4CCCO4)cc3F)ccc21 | 159 to 160 °C |
| CC(C)c1cc(C(C)C)c2c(c1)C1(O)C(=O)c3ccccc3C1(O)O2 (stereo unspecified) | 205 to 206 °C |
| Cc1cc(C)c(Nc2nc(C)ccc2S(=O)(=O)c2ccc(F)c(Cl)c2)c(C)c1 | 139 to 141 °C |
| COCCSc1sc(-c2cc[nH]n2)c2c1C(=O)CC(C)(C)C2 | 159 to 162 °C |
| COc1ccc(S(=O)(=O)N(Cc2cccnc2)c2c(C(=O)O)cc(C)cc2-c2cccs2)cc1 | 67 °C |
| Cc1c(CC(=O)O)c(=O)oc2cc(O)c(O)c([N+](=O)[O-])c12 | > 350 °C |
| Fc1ccc(-c2ccc3c(c2)C2(CCCCC2)C(=NOCc2ccccc2)N3)cc1 | 205 to 208 °C |
| CCCCC#CCCOc1ccc(C=O)cc1OC | 64.5 to 65.5 °C |
| Clc1nc2ccc(Br)cc2cc1Cc1ccccc1 | 102 to 104 °C |
| CC1=C(CC#N)CCc2ccccc21 | 48 to 49 °C |
| N#Cc1ncn2c1[C@@H]1CCN1C(=O)c1cc(Cl)ccc1-2 | 258 to 261 °C |
| NC(=O)CCC(O)c1ccccc1 (stereo unspecified) | 74 to 75 °C |
| CCCCOC(=O)[C@H]1CN(c2cc(F)c(N3CCSCC3)c(F)c2)C(=O)O1 | 102 to 103 °C |
| N[C@H]1CCCC[C@H]1CCC(O)(P(=O)(O)O)P(=O)(O)O (relative stereo) | 131 to 133 °C |
| O=C(NNc1ccc([N+](=O)[O-])cc1)c1ccc(Cl)cc1 | 246 to 248 °C |
| O=C(O)c1cn(C2CC2)c2c(F)c(N3CCC(n4cnnn4)C3)c(F)cc2c1=O (stereo unspecified) | 268 to 270 °C |
| CCOC(=O)C(=O)Nc1ccc(C(F)(F)F)cc1C | 120 to 121 °C |
| COc1ccc2c(c1)CCc1c(Cl)cccc1S2 | 73 to 74 °C |
| Cc1cccc(N2C(=S)SCC2(O)CC(C)C)n1 (stereo unspecified) | 95 °C |

| SMILES | melting point |
| --- | --- |
| CN(C)S(=O)(=O)N1CCN(S(=O)(=O)c2ccc(Oc3ccccc3)cc2)[C@@H](C(=O)NO)C1 | 153 to 155 °C |
| OCc1coc(/C=C/c2ccccc2)n1 | 94 to 95 °C |
| CCOC(=O)C(=C(c1ccc(F)cc1)c1ccc(F)cc1)c1nnn(C)n1 | 117 to 118 °C |
| COC(=O)C1CC2c3cccc4c3C(CN4)CC2N(C)C1 (stereo unspecified) | 110 to 120 °C |
| OCc1ccc2c(Br)cccc2c1 | 76 to 77 °C |
| N#CC1(C#N)C2C=CC(C2)C1(Cl)Cl (stereo unspecified) | 161 °C |
| CCOC(=O)c1cn2c3c(cc(I)cc3c1=O)OC(c1ccccn1)C2 (stereo unspecified) | 224 to 225 °C |
| COc1ccc(CSC#N)cc1OCc1ccccc1 | 70 to 74 °C |
| O=C(Cc1ccccc1)N1CC2CCC(C1)O2 | 106 °C |
| O=c1c(Cl)c(SCc2ccc(Cl)cc2)cnn1-c1ccccc1 | 154 to 155 °C |
| COc1ccc(CBr)c(CBr)c1 | 48 to 50 °C |
| Sc1nc(CCCc2cc(Cl)cc(Cl)c2)c[nH]1 | 98 to 99 °C |
| CCOC(=O)c1ncn2c(-c3ccccc3)ccnc12 | 200 to 204 °C |
| S=C=Nc1ccc2oc(-c3ccco3)nc2c1 | 135 to 137 °C |
| CC(=O)C1CCC2C3CCC4CC(F)CCC4(C)C3CCC12C (stereo unspecified) | 154 to 155 °C |
| COc1ccccc1N1CCN(CCCCN(C(N)=O)C(C)(C)C)CC1 | 167 to 169 °C |
| COC(=O)c1ccc(C2=NOC(c3cc(Cl)cc(Cl)c3)(C(F)(F)F)C2)cc1 (stereo unspecified) | 94 to 96 °C |
| CCn1cc(C(=O)O)c(=O)c2cc(F)c(N3CCN(S(=O)(=O)c4ccccc4)CC3)c(F)c21 | 234 to 235 °C |
| Nc1cccc(C(=O)N(CCN2CCC(C(=O)c3ccc(F)cc3)CC2)c2ccc(F)cc2)c1 | 159 to 162 °C |
| CC(c1ccc(-c2ccccc2Cl)cc1)S(=O)CC(=O)O (stereo unspecified) | 144 to 147 °C |
| CC(CNS(C)(=O)=O)n1nnc2cc3c(=O)n(C4CC4)nnc3cc2c1=O (stereo unspecified) | 195 to 197 °C |

| SMILES | melting point |
| --- | --- |
| CNc1nc(=O)n(CCCN2CCN(C(c3ccccc3)c3ccccc3)CC2)c2ccccc12 | 238 to 240 °C |
| O=C(C1CCN(CCO)CC1)N1CCN2C(=O)OC(c3ccccc3)(c3ccccc3)C2C1 (stereo unspecified) | 160 to 162 °C |
| Cc1csc2c(Br)cc3cc(C(=O)O)[nH]c3c12 | 229 to 241 °C |
| O=C(O)COc1ccc(-c2c3ccccc3cc3sc4ccccc4c23)cc1 | 221 to 223 °C |
| COC(=O)c1ccc(C#CC(=O)c2ccc3c(c2)C(C)(C)CCC3)cc1O | 114 to 116 °C |
| Cc1nc(-c2ccccc2C(F)(F)F)c2c(n1)N(c1ccc(C(C)C)cc1Br)CC(=O)N2 | 238 to 239 °C |
| Cc1noc(-c2cc(-c3ccccc3)c(=O)n3c2-c2sccc2SCC3)n1 | 183 to 185 °C |
| O=S(=O)(c1ccc(N2CCCCCC2)cc1)N1CCCC1=S | 172 to 173 °C |
| CC(C)CN(Cc1ccccc1)c1ncnc2nc[nH]c12 | 160 to 162 °C |
| CC#CCOc1ccc(S(=O)(=O)N(C)[C@H]2CCC[C@H]2C(=O)NO)cc1 | 160 to 164 °C |
| CC1CN(C(=O)Nc2ccc(Cl)cc2)N=C1c1ccc(Cl)cc1 (stereo unspecified) | 139 to 140 °C |
| CCOC(=O)C1=C(C)NC(C=O)=C(C(=O)OCC)C1c1ccccc1[N+](=O)[O-] (stereo unspecified) | 101 to 103 °C |
| O=C(NC1CCCCC1)c1c(O)c2cscc2[nH]c1=O | 244 °C |
| Cc1ccc(S(=O)(=O)OCCn2c([N+](=O)[O-])cnc2C=CN(C)C)cc1 | 116 to 118 °C |
| OC(CCN1CC=C(c2ccccc2)CC1)c1ccc(Cl)cc1 (stereo unspecified) | 141 °C |
| O=C(Nc1ccccc1)Nc1[nH]c2ccccc2c1-c1ccccc1 | 210 to 212 °C |
| Cc1c(O)ccc(NC2=CC(=O)C(N)=CC2=O)c1C | 320 °C |
| CC(C)C(Oc1ccccc1)C(=O)NCCO[N+](=O)[O-] (stereo unspecified) | 76 to 77 °C |
| NC(=O)Cc1ccc2[nH]ccc2c1 | 146 to 147 °C |
| CC1(C)CC(=C(c2ccc(O)cc2)c2ccc(OCC(=O)O)cc2)CC(C)(C)C1 | 163 to 164 °C |
| O=C(N[C@@H](Cc1c[nH]c2ccccc12)C(=O)O)C(CS)C(F)(F)F (stereo partly specified) | 144 to 147 °C |
